The values that follow come from BindingDB's records for doi:10.7270/Q2CV4GM1 (D3R/Abbott, 2015).

For this test, the target named is T1, Tyrosine-protein kinase SYK [355-635] (Homo sapiens, UniProt P43405).
T1 construct: 355-635
The experiment in a line: SYK assay_HTRF.

Broadly, the IC50 is the point on the concentration scale where inhibition reaches its midpoint. A high value points to a need for much substance.

“And” between values parts separate entries of the source, which are not always exact repeats. Identical values can stand only once.

`CCCN(c1nc(Nc2ccc3c(c2)S(=O)(=O)NC3)ncc1F)c1cccc2[nH]ncc12` [GTC000243A]: the IC50 is 4.09 nM and 3.13 nM and 3.56 nM and 9.55 nM and 5 nM and 4.1 nM and 3.04 nM and 3.52 nM and 5.97 nM.

For the compound `NCCCCCN(c1ccnc(Nc2ccc3c(c2)S(=O)(=O)NC3)n1)c1cccc2[nH]ncc12` [GTC000244A], the IC50 is 3 nM and 3.31 nM and 5.53 nM.

`O=C(O)CCCN(c1ccnc(Nc2ccc3c(c2)S(=O)(=O)NC3)n1)c1cccc2[nH]ncc12` [GTC000245A] displayed a half-inhibitory concentration (IC50) of 3.88 nM.

As for `COCCCN(c1ccnc(Nc2ccc3[nH]c(=O)[nH]c3c2)n1)c1cccc2[nH]ncc12` [GTC000246A], 3.6 nM corresponded to half-maximal inhibition (IC50). The IC50 values of the last two compounds are within 1.5-fold of each other.

The compound `CCN(c1nc(Nc2ccc3cn[nH]c3c2)ncc1F)c1cccc2[nH]ncc12` [GTC000247A] displayed an IC50 of 4.25 nM.

`CN(c1nc(Nc2ccc3c(c2)COC(=O)N3)ncc1F)c1cccc2[nH]ncc12` [GTC000248A] showed an IC50 of 3.9 nM. This IC50 and that of the compound before are within 1.5-fold of each other.

As to `CN(c1nc(Nc2ccc3c(c2)S(=O)(=O)NC3)ncc1F)c1cccc2[nH]ncc12` [GTC000249A], the IC50 is 11.6 nM and 1.99 nM.

In the case of `CCN(c1nc(Nc2ccc3cnn(CCCO)c3c2)ncc1F)c1cccc2[nH]ncc12` [GTC000250A], the IC50 is 2.81 nM and 3.59 nM and 14.9 nM and 5.77 nM.

Take `O=S1(=O)CCc2ccc(Nc3ncc(F)c(N(CCCO)c4cccc5[nH]ncc45)n3)cc21` [GTC000251A]: the concentration for half-maximal inhibition (IC50) was 6.11 nM and 4.06 nM and 3.67 nM.

Compound `NCCCN(c1nc(Nc2ccc3c(c2)S(=O)(=O)CC3)ncc1F)c1cccc2[nH]ncc12` [GTC000252A] showed an IC50 of 4.94 nM.

As for `O=S1(=O)NCc2ccc(Nc3ncc(F)c(N(CC4CCOC4)c4cccc5[nH]ncc45)n3)cc21` (stereo not drawn) [GTC000253A], the IC50 was determined as 5.19 nM.

Take `O=S1(=O)CCc2ccc(Nc3ncc(F)c(N(CCO)c4cccc5[nH]ncc45)n3)cc21` [GTC000254A]: the IC50 was determined as 4.75 nM.

`CCN(c1nc(Nc2ccc3cnn(C)c3c2)ncc1F)c1cccc2[nH]ncc12` [GTC000255A] showed an IC50 of 4.63 nM.

In the case of `O=c1[nH]c2ccc(Nc3nccc(N(CCCO)c4cccc5[nH]ncc45)n3)cc2[nH]1` [GTC000256A], the half-inhibitory concentration (IC50) amounted to 5.01 nM.

In turn, `COCCCN(c1ccnc(Nc2ccc3nn[nH]c3c2)n1)c1cccc2[nH]ncc12` [GTC000257A] had an IC50 of 5.04 nM.

In the case of `O=C1Nc2ccc(Nc3nccc(N(CCO)c4cccc5[nH]ncc45)n3)cc2CO1` [GTC000258A], it took 5 nM to reach half-maximal inhibition (IC50).

The compound `NS(=O)(=O)c1cccc(Nc2nccc(N(CCCO)c3cccc4[nH]ncc34)n2)c1` [GTC000259A] registered an IC50 of 5.02 nM.

`CCN(c1nc(Nc2ccc(C(N)=O)cc2)ncc1F)c1cccc2[nH]ncc12` [GTC000260A] had an IC50 of 5.48 nM.

Consider `CCN(c1nc(Nc2ccc(S(N)(=O)=O)cc2)ncc1F)c1cccc2[nH]ncc12` [GTC000261A], for which the IC50 came out at 5.04 nM.

On to `O=c1[nH]c2ccc(Nc3ncc(F)c(N(CCCO)c4cccc5[nH]ncc45)n3)cc2[nH]1` [GTC000262A], for which the IC50 is 5.09 nM.

Consider `COCCCN(c1nc(Nc2ccc3[nH]c(=O)[nH]c3c2)ncc1F)c1cccc2[nH]ncc12` [GTC000263A], for which the IC50 was determined as 4.86 nM.

For the compound `CN(c1nc(Nc2ccc3[nH]c(=O)[nH]c3c2)ncc1F)c1cccc2[nH]ncc12` [GTC000264A], the midpoint of inhibition, the IC50, lay at 5.3 nM.

In the case of `CN(c1nc(Nc2ccc3nn[nH]c3c2)ncc1F)c1cccc2[nH]ncc12` [GTC000265A], the IC50 was 5.6 nM.

The compound `CCN(c1nc(Nc2ccc3nn[nH]c3c2)ncc1F)c1cccc2[nH]ncc12` [GTC000267A] returned an IC50 of 6.27 nM. This IC50 and that of the compound before are within 1.5-fold of each other.

Compound `CCN(c1nc(Nc2ccc3c(c2)COC(=O)N3)ncc1F)c1cccc2[nH]ncc12` [GTC000268A] registered an IC50 of 6.76 nM.

In the case of `NCCCCCN(c1ccnc(Nc2ccc3[nH]c(=O)[nH]c3c2)n1)c1cccc2[nH]ncc12` [GTC000269A], the IC50 was found to be 6.97 nM.

Consider `Cn1ncc2ccc(Nc3nccc(N(CCCO)c4cccc5[nH]ncc45)n3)cc21` [GTC000270A], for which the IC50 is 6.95 nM.

The compound `CCN(c1nc(Nc2ccc(C(=O)NC)cc2)ncc1F)c1cccc2[nH]ncc12` [GTC000271A] showed an IC50 of 6.62 nM.

With `CCN(c1nc(Nc2ccc3c(c2)CC(=O)N3)ncc1F)c1cccc2[nH]ncc12` [GTC000272A], the half-maximal inhibitory concentration (IC50) came to 6.95 nM. The IC50 values of the last two compounds are within 1.5-fold of each other.

The compound `COCCCN(c1nc(Nc2ccc3c(c2)COC(=O)N3)ncc1F)c1cccc2[nH]ncc12` [GTC000273A] displayed an IC50 of 6.78 nM.

On to `Cn1ncc2ccc(Nc3nccc(N(CCCCO)c4cccc5[nH]ncc45)n3)cc21` [GTC000274A], for which the IC50 is 5.89 nM.

Take `OCCCCN(c1ccnc(Nc2ccc3nn[nH]c3c2)n1)c1cccc2[nH]ncc12` [GTC000275A]: the IC50 turned out to be 6.08 nM.

For `CN(c1nc(Nc2ccc3cnn(C)c3c2)ncc1F)c1cccc2[nH]ncc12` [GTC000276A], the IC50 was 5.98 nM. This IC50 and that of the compound before are within 1.5-fold of each other.

For `CCN(c1nc(Nc2ccc3c(c2)S(=O)(=O)CC3)ncc1F)c1cccc2[nH]ncc12` [GTC000277A], the IC50 was 7.19 nM and 7.62 nM.

Compound `O=S1(=O)CCc2ccc(Nc3ncc(F)c(N(CC4CCCO4)c4cccc5[nH]ncc45)n3)cc21` (stereo not drawn) [GTC000278A] came in with an IC50 of 7.98 nM.

`COCCCN(c1nc(Nc2ccc3c(C)nn(CCCO)c3c2)ncc1F)c1cccc2[nH]ncc12` [GTC000279A] came in with an IC50 of 7.52 nM.

Take `NCCCCN(c1ccnc(Nc2ccc3[nH]c(=O)[nH]c3c2)n1)c1cccc2[nH]ncc12` [GTC000280A]: the IC50 worked out at 7.4 nM.

`NC(=O)c1cccc(Nc2nccc(N(CCO)c3cccc4[nH]ncc34)n2)c1` [GTC000281A] had an IC50 of 7.19 nM. This IC50 and that of the compound before are within 1.5-fold of each other.

For `CCN(c1nc(Nc2cccc(O)c2)ncc1F)c1cccc2[nH]ncc12` [GTC000282A], the 50% inhibitory concentration (IC50) worked out at 7.94 nM.

On to `CCN(c1nc(Nc2ccc3c(c2)[nH]c(=O)n3C)ncc1F)c1cccc2[nH]ncc12` [GTC000283A], for which it took 8.13 nM to reach half-maximal inhibition (IC50).

Take `NS(=O)(=O)c1cccc(Nc2ncc(F)c(N(CCCO)c3cccc4[nH]ncc34)n2)c1` [GTC000284A]: half-maximal inhibition (IC50) was put at 8.79 nM.

The compound `COCCN(c1ccnc(Nc2ccc3c(c2)S(=O)(=O)NC3)n1)c1cccc2[nH]ncc12` [GTC000285A] returned an IC50 of 8.34 nM.

In turn, `Cc1ncoc1-c1cccc(Nc2nccc(N(CCCCO)c3cccc4[nH]ncc34)n2)c1` [GTC000286A] yielded an IC50 of 7.64 nM. The IC50 values of the last two compounds are within 1.5-fold of each other.

Compound `Cn1ncc2cc(Nc3nccc(N(CCCCO)c4cccc5[nH]ncc45)n3)ccc21` [GTC000287A] yielded an IC50 of 8.05 nM.

Take `CS(=O)(=O)NCCCCN(c1ccnc(Nc2ccc3[nH]c(=O)[nH]c3c2)n1)c1cccc2[nH]ncc12` [GTC000288A]: the IC50 is 19.8 nM and 5.42 nM.

Take `CCN(c1nc(Nc2ccc3c(c2)S(=O)(=O)N(C)C3)ncc1F)c1cccc2[nH]ncc12` [GTC000289A]: the IC50 is 13.7 nM and 5.32 nM and 16.3 nM.

As to `CCN(c1nc(Nc2ccc3[nH]c(=O)[nH]c3c2)ncc1Cl)c1cccc2[nH]ncc12` [GTC000290A], the IC50 is 6.7 nM and 12.6 nM.

Regarding `CCN(CC)CCCN(c1ccnc(Nc2ccc3c(c2)S(=O)(=O)NC3)n1)c1cccc2[nH]ncc12` [GTC000291A], the IC50 is 11.5 nM and 7.21 nM.

For `O=c1[nH]c2ccc(Nc3nccc(N(CC4CCNCC4)c4cccc5[nH]ncc45)n3)cc2[nH]1` [GTC000292A], the IC50 was found to be 10.8 nM.

Consider `NCCCN(c1ccnc(Nc2ccc3[nH]c(=O)[nH]c3c2)n1)c1cccc2[nH]ncc12` [GTC000293A], for which the IC50 came to 9.29 nM.

`COCCCN(c1nc(Nc2ccc3c(cnn3C)c2)ncc1F)c1cccc2[nH]ncc12` [GTC000294A] came in with an IC50 of 10.2 nM.

As to `OCCCN(c1nc(Nc2ccc3nn[nH]c3c2)ncc1F)c1cccc2[nH]ncc12` [GTC000295A], the IC50 is 9.53 nM.

Regarding `COC(=O)CCCCN(c1ccnc(Nc2ccc3c(c2)S(=O)(=O)NC3)n1)c1cccc2[nH]ncc12` [GTC000296A], the IC50 is 5.04 nM and 25.1 nM and 21.6 nM.

`COC(=O)CCCN(c1ccnc(Nc2ccc3c(c2)S(=O)(=O)NC3)n1)c1cccc2[nH]ncc12` [GTC000297A]: the 50% inhibitory concentration (IC50) is 6.89 nM and 13.9 nM and 13.1 nM.

As to `COCCCN(c1nc(Nc2ccc3cnn(C)c3c2)ncc1F)c1cccc2[nH]ncc12` [GTC000298A], the IC50 was 10.7 nM and 15.6 nM and 15.1 nM.

The compound `CCN(c1nc(Nc2ccc3cnn(CCCCO)c3c2)ncc1F)c1cccc2[nH]ncc12` [GTC000299A] registered an IC50 of 13.9 nM.

The compound `CCN(c1nc(Nc2cccc(S(C)(=O)=O)c2)ncc1F)c1cccc2[nH]ncc12` [GTC000300A] displayed an IC50 of 11.3 nM.

Take `COCCCN(c1nc(Nc2cccc(S(N)(=O)=O)c2)ncc1F)c1cccc2[nH]ncc12` [GTC000301A]: it took 12.1 nM to reach half-maximal inhibition (IC50).

Turning to `CCN(c1nc(Nc2ccc3c(c2)C(C)(C)C(=O)N3)ncc1F)c1cccc2[nH]ncc12` [GTC000302A], the IC50 was 13.2 nM.

`CN(c1nc(Nc2ccc3c(cnn3C)c2)ncc1F)c1cccc2[nH]ncc12` [GTC000303A] showed an IC50 of 11.5 nM. This IC50 and that of the compound before are within 1.5-fold of each other.

For the compound `O=S1(=O)NCc2ccc(Nc3nccc(N(C[C@@H](O)CO)c4cccc5[nH]ncc45)n3)cc21` [GTC000304A], the IC50 was 13.6 nM. This IC50 and that of the compound before are within 1.5-fold of each other.

Regarding `CCN(c1nc(Nc2ccc3c(cnn3C(C)C)c2)ncc1F)c1cccc2[nH]ncc12` [GTC000305A], the IC50 was 29.2 nM and 7.13 nM.

In the case of `CCN(c1nc(Nc2cccc(-c3cnco3)c2)ncc1F)c1cccc2[nH]ncc12` [GTC000306A], the IC50 is 9.02 nM and 16.6 nM and 26.1 nM.

In the case of `CCN(c1nc(Nc2ccc3c(c2)S(=O)(=O)N(CC)C3)ncc1F)c1cccc2[nH]ncc12` [GTC000307A], the IC50 is 16.2 nM and 14 nM.

Turning to `CS(=O)(=O)NCCCCCN(c1ccnc(Nc2ccc3[nH]c(=O)[nH]c3c2)n1)c1cccc2[nH]ncc12` [GTC000308A], the concentration for half-maximal inhibition (IC50) is 17.7 nM and 15.4 nM.

For the compound `NC(=O)c1cccc(Nc2nccc(N(CCCO)c3cccc4[nH]ncc34)n2)c1` [GTC000309A], half-maximal inhibition (IC50) was put at 17.7 nM. In other words, the double-digit nanomolar range.

With `CC(=O)NCCCCCN(c1ccnc(Nc2ccc3[nH]c(=O)[nH]c3c2)n1)c1cccc2[nH]ncc12` [GTC000310A], the IC50 stood at 16.4 nM.

`CS(=O)(=O)c1cccc(Nc2nccc(N(CCO)c3cccc4[nH]ncc34)n2)c1` [GTC000311A] yielded a concentration for half-maximal inhibition (IC50) of 15.3 nM.

In the case of `CCNC(=O)c1ccc(Nc2ncc(F)c(N(CC)c3cccc4[nH]ncc34)n2)cc1` [GTC000312A], the IC50 was found to be 16.1 nM.

`COCCN(c1ccnc(Nc2ccc3cnn(C)c3c2)n1)c1cccc2[nH]ncc12` [GTC000313A] yielded an IC50 of 16.6 nM.

Regarding `O=S1(=O)NCc2ccc(Nc3nccc(N(CC(F)(F)F)c4cccc5[nH]ncc45)n3)cc21` [GTC000314A], the IC50 is 15.7 nM.

On to `COCCCN(c1nc(Nc2cccc(-c3ocnc3C)c2)ncc1F)c1cccc2[nH]ncc12` [GTC000315A], for which the half-maximal inhibitory concentration (IC50) was determined as 16.3 nM.

For the compound `Cc1ncoc1-c1cccc(Nc2ncc(F)c(N(C)c3cccc4[nH]ncc34)n2)c1` [GTC000316A], the IC50 worked out at 16.4 nM.
